Reference: patent US11780845B2 (Relay Therapeutics, Inc., priority 2019, dated 2023)

Experiments:
[1] = target: FGFR2 (Homo sapiens (Human), UniProt P21802); assay: FGFR2 Biochemical Caliper Assay
Experimental: Compounds of the present invention were also tested in a FGFR2 Biochemical Caliper Assay. Compounds were prepared in 10 mM DMSO solution and serially diluted into 11 concentrations by 3-fold dilution. […] 5 uL of ATP solution (100 uM) was added to start the reaction and the plate was incubated for 90 minutes, then 70 uL of stopping buffer (0.5M EDTA) was added to terminate the reaction. Each well was analyzed using EZ reader.

[2] = tested on: SNU16 cells; assay: SNU16 Cancer Cell Line Proliferation Assay; type: cell-based; conditions: Homo sapiens; SNU-16 cells
Method in brief: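 Proliferation read-out: CellTiter Glo chemiluminescence after 96 h compound exposure. Test compounds, serially diluted 3-fold over 11 points from a 10 mM DMSO stock, were added to SNU16 cells plated 24 h earlier at 37 degrees.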

Chain of FGFR2 (P21802 22-821): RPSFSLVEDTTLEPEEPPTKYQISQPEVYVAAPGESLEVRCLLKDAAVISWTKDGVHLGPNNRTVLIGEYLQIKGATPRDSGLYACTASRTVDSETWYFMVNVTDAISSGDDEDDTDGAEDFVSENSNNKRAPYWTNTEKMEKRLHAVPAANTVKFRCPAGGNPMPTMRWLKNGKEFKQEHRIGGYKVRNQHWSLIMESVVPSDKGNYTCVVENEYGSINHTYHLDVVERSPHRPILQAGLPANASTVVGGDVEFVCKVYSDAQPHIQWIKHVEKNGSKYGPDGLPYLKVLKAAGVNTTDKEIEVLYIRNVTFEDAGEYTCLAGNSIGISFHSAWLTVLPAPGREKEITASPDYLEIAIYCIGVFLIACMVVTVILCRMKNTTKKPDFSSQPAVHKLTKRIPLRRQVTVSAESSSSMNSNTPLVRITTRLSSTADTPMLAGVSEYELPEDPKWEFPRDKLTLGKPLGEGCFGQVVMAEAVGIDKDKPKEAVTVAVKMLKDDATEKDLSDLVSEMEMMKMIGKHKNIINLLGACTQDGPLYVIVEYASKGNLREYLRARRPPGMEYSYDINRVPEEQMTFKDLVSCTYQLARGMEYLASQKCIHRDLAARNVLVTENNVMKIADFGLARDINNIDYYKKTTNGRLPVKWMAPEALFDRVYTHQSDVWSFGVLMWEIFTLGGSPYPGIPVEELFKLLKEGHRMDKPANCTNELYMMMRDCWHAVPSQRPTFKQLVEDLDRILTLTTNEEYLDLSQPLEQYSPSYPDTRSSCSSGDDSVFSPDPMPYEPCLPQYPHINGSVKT

| SMILES | IC50 [1] [nM] | IC50 [2] [nM] |
| --- | --- | --- |
| C=C(C)C(=O)Nc1ccc(-c2c(-c3ccc(C(=O)NC4C5COCC54)cc3)c3c(N)ncnc3n2C)cc1 (centres unmarked) [Example 352] | 250 to 1000 | 250 to 1000 |
| C=C(C)C(=O)Nc1ccc(-c2c(-c3ccc(C(=O)N4CCC[C@H](OC)C4)cc3)c3c(N)ncnc3n2C)cc1 [Example 353] | 1000 to 100000 | 250 to 1000 |
| C=C(C)C(=O)Nc1ccc(-c2c(-c3ccc(C(=O)N4CCCC4)cc3)c3c(N)ncnc3n2C)cc1OC [Example 354] | 1000 to 100000 | 250 to 1000 |
| C=C(C)C(=O)Nc1ccc(-c2c(-c3ccc(C(=O)N4CCCC4)cc3)c3c(N)ncnc3n2C)c(F)c1 [Example 355] | < 100 | ≤ 100 |
| C=C(C)C(=O)Nc1ccc(-c2c(-c3ccc(C(=O)N4CCC[C@H]4COC)cc3)c3c(N)ncnc3n2C)cc1 [Example 357] | < 100 | ≤ 100 |
| C=C(C)C(=O)Nc1ccc(-c2c(-c3ccc(C(=O)N4CCC[C@@H]4COC)cc3)c3c(N)ncnc3n2C)cc1 [Example 361] | 250 to 1000 | 250 to 1000 |
| C=C(C)C(=O)Nc1ccc(-c2c(-c3ccc(C(=O)NCC4CCOC4)cc3)c3c(N)ncnc3n2C)cc1 (centres unmarked) [Example 362] | < 100 | 250 to 1000 |
| C=C(C)C(=O)Nc1ccc(-c2c(-c3ccc(C(=O)NC4(COC)CCC4)cc3)c3c(N)ncnc3n2C)cc1 [Example 365] | < 100 | ≤ 100 |
| C=C(C)C(=O)Nc1ccc(-c2c(-c3ccc(C(=O)N(C)CC(C)(C)O)cc3)c3c(N)ncnc3n2C)cc1 [Example 368] | 250 to 1000 | 250 to 1000 |
| C=C(C)C(=O)Nc1ccc(-c2c(-c3ccc(C(=O)N4CCCCC4COC)cc3)c3c(N)ncnc3n2C)cc1 (centres unmarked) [Example 369] | < 100 | ≤ 100 |
| C=C(C)C(=O)Nc1ccc(-c2c(-c3ccc(Oc4cccc(C)n4)cc3)c3c(N)ncnc3n2CCOC)cc1 [Example 370] | < 100 | ≤ 100 |
| C=C(C)C(=O)Nc1ccc(-c2c(-c3ccc(C(=O)NC(CF)CF)cc3)c3c(N)ncnc3n2C)cc1 [Example 371] | < 100 | ≤ 100 |
| C=C(C)C(=O)Nc1ccc(-c2c(-c3ccc(C(=O)NCC4(CO)CC4)cc3)c3c(N)ncnc3n2C)cc1 [Example 372] | < 100 | 250 to 1000 |
| C=C(C)C(=O)Nc1ccc(-c2c(-c3ccc(C(=O)NCC(C)(C)C#N)cc3)c3c(N)ncnc3n2C)cc1 [Example 373] | < 100 | ≤ 100 |
| C=C(C)C(=O)Nc1ccc(-c2c(-c3ccc(C(=O)N(C)Cc4nnc(C)o4)cc3)c3c(N)ncnc3n2C)cc1 [Example 374] | 1000 to 100000 | 250 to 1000 |
| C=C(C)C(=O)Nc1ccc(-c2c(-c3ccc(C(=O)N(C)Cc4noc(C)n4)cc3)c3c(N)ncnc3n2C)cc1 [Example 375] | 250 to 1000 | 250 to 1000 |
| C=C(C)C(=O)Nc1ccc(-c2c(-c3ccc(C(=O)NCC4CCCO4)cc3)c3c(N)ncnc3n2C)cc1 (centres unmarked) [Example 376] | < 100 | ≤ 100 |
| C=C(C)C(=O)Nc1ccc(-c2c(-c3ccc(C(=O)NCC4CCCN4C)cc3)c3c(N)ncnc3n2C)cc1 (centres unmarked) [Example 377] | 250 to 1000 | 250 to 1000 |
| C=C(C)C(=O)Nc1ccc(-c2c(-c3ccc(Oc4cccc(C)n4)c(OCCOC)c3)c3c(N)ncnc3n2C)cc1 [Example 378] | 1000 to 100000 | 250 to 1000 |
| C=C(C)C(=O)Nc1ccc(-c2c(-c3ccc(Oc4cccc(N)n4)cc3)c3c(N)ncnc3n2C)cc1 [Example 379] | < 100 | ≤ 100 |
| C=C(C)C(=O)Nc1ccc(-c2c(-c3ccc(Oc4cccc(C)n4)cc3)c3c(N)ncnc3n2C)cc1CN(C)C [Example 380] | 100 to 250 | 250 to 1000 |
| C=C(C)C(=O)Nc1ccc(-c2c(-c3ccc(C(=O)NCC4CCC4)cc3)c3c(N)ncnc3n2C)cc1 [Example 381] | < 100 | ≤ 100 |
| C=C(C)C(=O)Nc1ccc(-c2c(-c3ccc(Oc4nccc(C)n4)cc3)c3c(N)ncnc3n2C)cc1 [Example 382] | < 100 | ≤ 100 |
| C=C(C)C(=O)Nc1ccc(-c2c(-c3ccc(C(=O)NCc4ccn(C)n4)cc3)c3c(N)ncnc3n2C)cc1 [Example 383] | 1000 to 100000 | 250 to 1000 |
| C=C(C)C(=O)Nc1ccc(-c2c(-c3ccc(Oc4cccc(C)n4)cc3)c3c(N)ncnc3n2C)c(C)c1 [Example 384] | < 100 | ≤ 100 |
| C=C(C)C(=O)Nc1ccc(-c2c(-c3ccc(Oc4cccc(C)n4)cc3)c3c(N)ncnc3n2C)cc1C [Example 385] | 100 to 250 | ≤ 100 |
| C=C(C)C(=O)Nc1ccc(-c2c(-c3ccc(C(=O)NC4CCOC4)c(OC)c3)c3c(N)ncnc3n2C)cc1 (centres unmarked) [Example 386] | < 100 | 100 to 250 |
| C=C(C)C(=O)Nc1ccc(-c2c(C3=CCC(C(=O)N4CC5CCC(C5)C4)CC3)c3c(N)ncnc3n2C)cc1 (centres unmarked) [Example 387] | 100 to 250 | ≤ 100 |
